Test results taken from US20180221306A1, “PHARMACEUTICAL COMPOSITIONS OF 5-HYDROXY-2-METHYLNAPHTHALENE-1,4-DIONE” (PellFiCure Pharmaceuticals, Inc., priority 2016, published 2018).
Marks after values point to notes of the source that are not given here.

Legend:
[1] = system: PTEN-P2 mouse cells; experiment: Orthotopic prostate cancer survival study, PTEN-P2 cells in Fox1/Nu mice; format: in vivo
Description: Orthotopic injection of PTEN-P2 and TRAMP-C2 for survival studies: Mice were anaesthetized and an incision was made through the skin and peritoneum. A total of 30,000 cells were suspended in Matrigel and slowly injected into the dorsal lobe of the prostate using a 30-gauge needle. Matrigel was used to prevent the leakage of cells out of the site of injection. A Q-tip was held over the injection site for 1 min to prevent bleeding and spill after removal of the needle. The abdominal wall was closed by surgical silk sutures.
Fox1/Nu or C57BL/6J mice were used as recipients for PTEN-P2 and TRAMP-C2 cells, respectively. Mice were surgically castrated 6 weeks later, when tumors were established, and Compound I treatment was initiated 4-5 days later. The number of days mice lived following treatment initiation was recorded for each animal. A few mice were found dead upon daily inspection, while others were euthanized in agreement with our IACUC regulations, including mice showing weight losses of more than 15% and mice showing signs of pain though posture and lack of grooming were euthanized.
An orthotopic model of prostate cancer in which 30,000 PTEN-P2 mouse cells were injected into the prostate of Fox1/Nu mice was used. Mice were castrated 5 weeks after the PTEN-P2 mouse cells were injected into the prostate, which allowed the tumors to become established. […] The number of days mice lived following treatment initiation was recorded for each animal.

[2] = Forced degradation: stability of Compound I formulations in selected solvents and Carrier A (HPLC)
[3] = 10% HPβCD, 25° C./60% RH, t = 2 week

CC1=CC(=O)c2c(O)cccc2C1=O [Compound I, 5-hydroxy-2-methylnaphthalene-1,4-dione]
Survival, combination with castration vs castration alone ([1]; oral 1 mg/kg/day in Carrier A plus castration, p=0.01): survived significantly longer
Survival, Compound I alone vs castration alone ([1]; oral 1 mg/kg/day in Carrier A, p=0.118): not statistically different
Survival, combination with castration vs untreated control ([1]; oral formulation plus castration, p=0.042): survived longer
Survival, Compound I alone vs untreated control ([1]; p=0.296): not statistically different
Solution Stability in Selected Solvents, Purity ([2]; 1% TW20, 25° C./60% RH, t = 0): 97.00 % Area
Solution Stability in Selected Solvents, Purity ([2]; 1% TW20, 25° C./60% RH, t = 1 week, precipitation observed): 64.23^‡ % Area
Solution Stability in Selected Solvents, Purity ([2]; 1% TW20, 25° C./60% RH, t = 2 week, precipitation observed): 50.47^‡ % Area
Solution Stability in Selected Solvents, Purity ([2]; 1% TW20, 40° C./75% RH, t = 1 week, precipitation observed): 47.19^‡ % Area
Solution Stability in Selected Solvents, Purity ([2]; 1% TW20, 40° C./75% RH, t = 2 week, precipitation observed): 41.25^‡ % Area
Solution Stability in Selected Solvents, Purity ([2]; 1% TW80, 25° C./60% RH, t = 0): 95.11 % Area
Solution Stability in Selected Solvents, Purity ([2]; 1% TW80, 25° C./60% RH, t = 1 week, precipitation observed): 57.32^‡ % Area
Solution Stability in Selected Solvents, Purity ([2]; 1% TW80, 25° C./60% RH, t = 2 week, precipitation observed): 47.62^‡ % Area
Solution Stability in Selected Solvents, Purity ([2]; 1% TW80, 40° C./75% RH, t = 1 week, precipitation observed): 42.07^‡ % Area
Solution Stability in Selected Solvents, Purity ([2]; 1% TW80, 40° C./75% RH, t = 2 week, precipitation observed): 40.53^‡ % Area
Solution Stability in Selected Solvents, Purity ([2]; 10% HPβCD, 25° C./60% RH, t = 0): 99.49 % Area
Solution Stability in Selected Solvents, Purity ([2]; 10% HPβCD, 25° C./60% RH, t = 1 week): 97.41 % Area
Solution Stability in Selected Solvents, % Potency [2, 3]: 91.09%
Solution Stability in Selected Solvents, Purity [2, 3]: 94.73 % Area
Solution Stability in Selected Solvents, Purity ([2]; 10% HPβCD, 40° C./75% RH, t = 1 week): 91.22 % Area
Solution Stability in Selected Solvents, Purity ([2]; 10% HPβCD, 40° C./75% RH, t = 2 week): 87.69 % Area
Solution Stability in Selected Solvents, Purity ([2]; ACN, 25° C./60% RH, t = 0): 95.56 % Area
Solution Stability in Selected Solvents, Purity ([2]; ACN, 25° C./60% RH, t = 1 week): 93.35 % Area
Solution Stability in Selected Solvents, Purity ([2]; ACN, 25° C./60% RH, t = 2 week): 91.03 % Area
Solution Stability in Selected Solvents, Purity ([2]; ACN, 40° C./75% RH, t = 1 week): 93.33 % Area
Solution Stability in Selected Solvents, Purity ([2]; ACN, 40° C./75% RH, t = 2 week): 93.59 % Area
Solution Stability in Selected Solvents, Purity ([2]; Acetone, 25° C./60% RH, t = 0): 94.35 % Area
Solution Stability in Selected Solvents, Purity ([2]; Acetone, 25° C./60% RH, t = 1 week): 93.49 % Area
Solution Stability in Selected Solvents, Purity ([2]; Acetone, 25° C./60% RH, t = 2 week): 92.27 % Area
Solution Stability in Selected Solvents, Purity ([2]; Acetone, 40° C./75% RH, t = 1 week): 91.94 % Area
Solution Stability in Selected Solvents, Purity ([2]; Acetone, 40° C./75% RH, t = 2 week): 91.52 % Area
Stability of the formulation in Carrier A (sesame oil), Purity ([2]; Carrier A (NF), 25° C./60% RH, t = 3 day): 99.2 Area - %
Stability of the formulation in Carrier A (sesame oil), Purity ([2]; Carrier A (NF), 25° C./60% RH, t = 10 day): 99.4 Area - %
Stability of the formulation in Carrier A (sesame oil), Purity ([2]; Carrier A (NF), 40° C./75% RH, t = 3 day): 98.9 Area - %
Stability of the formulation in Carrier A (sesame oil), Purity ([2]; Carrier A (NF), 40° C./75% RH, t = 10 day): 99.2 Area - %
Stability of the formulation in Carrier A (sesame oil), Purity ([2]; Carrier A (NF: laboratory grade), t = 0, reported from a representative standard): 99.7 Area - %
Stability of the formulation in Carrier A (sesame oil), Purity ([2]; Carrier A (SR), 25° C./60% RH, t = 3 day): 99.5 Area - %
Stability of the formulation in Carrier A (sesame oil), Purity ([2]; Carrier A (SR), 25° C./60% RH, t = 10 day): 99.5 Area - %
Stability of the formulation in Carrier A (sesame oil), Purity ([2]; Carrier A (SR), 40° C./75% RH, t = 3 day): 99.3 Area - %
Stability of the formulation in Carrier A (sesame oil), Purity ([2]; Carrier A (SR), 40° C./75% RH, t = 10 day): 99.3 Area - %
Stability of the formulation in Carrier A (sesame oil), Purity ([2]; Carrier A (SR: super refined grade), t = 0, reported from a representative standard): 99.7 Area - %
Solution Stability in Selected Solvents, Purity ([2]; DCM, 25° C./60% RH, t = 0): 92.84 % Area
Solution Stability in Selected Solvents, Purity ([2]; DCM, 25° C./60% RH, t = 1 week): 93.85 % Area
Solution Stability in Selected Solvents, Purity ([2]; DCM, 25° C./60% RH, t = 2 week): 92.99 % Area
Solution Stability in Selected Solvents, Purity ([2]; DCM, 40° C./75% RH, t = 1 week): 91.88 % Area
Solution Stability in Selected Solvents, Purity ([2]; DCM, 40° C./75% RH, t = 2 week): 81.23 % Area
Solution Stability in Selected Solvents, Purity ([2]; DMSO, 25° C./60% RH, t = 0): 94.08 % Area
Solution Stability in Selected Solvents, Purity ([2]; DMSO, 25° C./60% RH, t = 1 week): 93.47 % Area
Solution Stability in Selected Solvents, Purity ([2]; DMSO, 25° C./60% RH, t = 2 week): 92.47 % Area
Solution Stability in Selected Solvents, Purity ([2]; DMSO, 40° C./75% RH, t = 1 week): 89.28 % Area
